Measured values reported in patent publication US9872883B2, “Methods of producing anamorelin hydrochloride having controlled chloride content” (HELSINN HEALTHCARE SA, priority 2012, dated 2018).
In brackets after ≈: the same amount, converted by molar mass. Counter-ions that a name gives are not always drawn. Values belong to the compound of their own block, whether it stands above or below them.

Tests used:
Assay type in all cases: physicochemical
[1] = Stability testing for anamorelin dihydrochloride relative to the monohydrochloride and free base at 40° C./75% relative humidity
Protocol: Stability testing for anamorelin dihydrochloride relative to the monohydrochloride and anamorelin free base at 40° C./75% relative humidity is reported below in Table 3D. For the anamorelin dihydrochloride preparation, anamorelin free base was dissolved in ethyl acetate and a molar excess of hydrochloric acid in ethyl acetate was added into the mixture to precipitate anamorelin dihydrochloride. The resulting anamorelin dihydrochloride was filtered and dried (chloride content approximately 12.2%). HPLC Area % in Table 3D refers to the amount of converted value of anamorelin free base in samples.

[2] = Solubility test in distilled water (HPLC); details: distilled water (initial pH 7)
Protocol: A solution of standard curve was prepared to 356 μmol/L by diluting standard substance (anamorelin free base (quantitative value: 93.90%), 86.6 mmol/L, isopropyl acetate solution) with acetonitrile. In addition, a sample solution was prepared according to the process that test compound (about 100 mg) added into distilled water (10.00 g), the solution was mixed for 10 minutes at 50° C. and then was placed overnight, obtained suspension was filtered by syringe with filter (0.2 μm) and the filtrate (48.93 mg) was diluted with acetonitrile (10 mL). A solution of standard curve and a sample solution (each 5 μL) were determined by injecting into HPLC (GULLIVER1500 HPLC system, JASCO Corporation).

[3] = Stability testing of spray dried amorphous anamorelin monohydrochloride (Batch A), purity and impurities by HPLC; set-up: Impurity 1 / Impurity 2 / Impurity 3 / Impurity 4 / Impurity 5 / Impurity 6 / Impurity 7: unit not given here
Protocol: The purity of the anamorelin monohydrochloride (or composition comprising anamorelin monohydrochloride) was measured using high performance liquid chromatograph (HPLC) (Hewlett-Packard HP 1100 HPLC System, Agilent Technologies Inc.). The concentrated aqueous solution of anamorelin monohydrochloride A of example 1 was concentrated by spray drying using Niro QSD-3.6 (trade mark, GEA process engineering Inc.) to afford anamorelin monohydrochloride referred to as Batch A in Tables 2A and 2B) in an amorphous state. RRT refers to the relative retention time of the impurity versus anamorelin. In addition, the purity was converted into the amount of anamorelin free base within a sample without any other organic solvent since anamorelin monohydrochloride (or composition comprising anamorelin monohydrochloride) was dissolved in the solvent to be measured by HPLC condition.

[4] = Long-term stability of batches having differing chloride contents, % increase in total impurities
Protocol: The long-term stability of three separate batches of anamorelin monohydrochloride (or composition comprising anamorelin monohydrochloride) having differing chloride contents were evaluated for stability at 25° C./60% relative humidity for one, two and three years, and 40° C./75% relative humidity for one, three and six months. The results are presented below in Table 3C. % Increase in Table 3C was calculated by the following formula. % Increase=(M−I)/I×100
I: initial total impurity (%)
M: measured total impurity (%) at specific time (e.g., 3 months, 6 month and so forth)

Structure (SMILES): CN(C)N(C)C(=O)[C@@]1(Cc2ccccc2)CCCN(C(=O)[C@@H](Cc2c[nH]c3ccccc23)NC(=O)C(C)(C)N)C1 [Anamorelin Free Base, (3R)1-(2-methylalanyl-D-tryptophyl)-3-(phenylmethyl)-3-piperidinecarboxylic acid 1,2,2trimethylhydrazide]
- HPLC Area % ([1]; 1M): 99.9%
- HPLC Area % ([1]; 3M): 99.7%
- HPLC Area % ([1]; I.T.): 99.7%
- solubility [2]: 0.04 mg/mL (≈ 73.2 µM)

Structure (SMILES): CN(C)N(C)C(=O)[C@@]1(Cc2ccccc2)CCCN(C(=O)[C@@H](Cc2c[nH]c3ccccc23)NC(=O)C(C)(C)N)C1 [anamorelin monohydrochloride]
- stability (in words) ([3]; six months under each set of conditions): nearly unchanged
- long-term stability (in words) ([4]; three years, 25° C./60% RH): nearly unchanged
- HPLC Area % ([1]; 1M, listed as Anamorelin Mono-HCl): 99.3%
- HPLC Area % ([1]; 3M, listed as Anamorelin Mono-HCl): 99.2%
- HPLC Area % ([1]; I.T., listed as Anamorelin Mono-HCl): 99.9%
- solubility [2]: >333 mg/mL

Structure (SMILES): CN(C)N(C)C(=O)[C@@]1(Cc2ccccc2)CCCN(C(=O)[C@@H](Cc2c[nH]c3ccccc23)NC(=O)C(C)(C)N)C1 [Anamorelin Di-HCl, reference compound]
- HPLC Area % ([1]; 1M): 98.2%
- HPLC Area % ([1]; 3M): 97.1%
- HPLC Area % ([1]; I.T.): 98.9%
- long-term stability (in words) ([1]; relative to the monohydrochloride): easy to be changed

Structure (SMILES): CN(C)N(C)C(=O)[C@@]1(Cc2ccccc2)CCCN(C(=O)[C@@H](Cc2c[nH]c3ccccc23)NC(=O)C(C)(C)N)C1 [anamorelin]
- Impurity 1 ([3]; 25° C./60% RH, 1 month): <0.05
- Impurity 2 ([3]; 25° C./60% RH, 1 month): <0.05
- Impurity 3 ([3]; 25° C./60% RH, 1 month): <0.05
- Impurity 4 ([3]; 25° C./60% RH, 1 month): <0.05
- Impurity 5 ([3]; 25° C./60% RH, 1 month): <0.05
- Impurity 6 ([3]; 25° C./60% RH, 1 month): <0.05
- Impurity 7 ([3]; 25° C./60% RH, 1 month): <0.05
- anamorelin (HPLC purity) ([3]; 25° C./60% RH, 1 month): 100.0%
- Impurity 1 ([3]; 25° C./60% RH, 3 months): <0.05
- Impurity 2 ([3]; 25° C./60% RH, 3 months): <0.05
- Impurity 3 ([3]; 25° C./60% RH, 3 months): <0.05
- Impurity 4 ([3]; 25° C./60% RH, 3 months): <0.05
- Impurity 5 ([3]; 25° C./60% RH, 3 months): <0.05
- Impurity 6 ([3]; 25° C./60% RH, 3 months): <0.05
- Impurity 7 ([3]; 25° C./60% RH, 3 months): <0.05
- anamorelin (HPLC purity) ([3]; 25° C./60% RH, 3 months): 100.0%
- Impurity 1 ([3]; 25° C./60% RH, 6 months): <0.05
- Impurity 2 ([3]; 25° C./60% RH, 6 months): <0.05
- Impurity 3 ([3]; 25° C./60% RH, 6 months): <0.05
- Impurity 4 ([3]; 25° C./60% RH, 6 months): <0.05
- Impurity 5 ([3]; 25° C./60% RH, 6 months): <0.05
- Impurity 6 ([3]; 25° C./60% RH, 6 months): <0.05
- Impurity 7 ([3]; 25° C./60% RH, 6 months): <0.05
- anamorelin (HPLC purity) ([3]; 25° C./60% RH, 6 months): 100.0%
- Impurity 1 ([3]; 40° C./75% RH, 1 month): <0.05
- Impurity 2 ([3]; 40° C./75% RH, 1 month): <0.05
- Impurity 3 ([3]; 40° C./75% RH, 1 month): <0.05
- Impurity 4 ([3]; 40° C./75% RH, 1 month): <0.05
- Impurity 5 ([3]; 40° C./75% RH, 1 month): <0.05
- Impurity 6 ([3]; 40° C./75% RH, 1 month): <0.05
- Impurity 7 ([3]; 40° C./75% RH, 1 month): <0.05
- anamorelin (HPLC purity) ([3]; 40° C./75% RH, 1 month): 100.0%
- Impurity 1 ([3]; 40° C./75% RH, 3 months): <0.05
- Impurity 2 ([3]; 40° C./75% RH, 3 months): <0.05
- Impurity 3 ([3]; 40° C./75% RH, 3 months): <0.05
- Impurity 4 ([3]; 40° C./75% RH, 3 months): <0.05
- Impurity 5 ([3]; 40° C./75% RH, 3 months): <0.05
- Impurity 6 ([3]; 40° C./75% RH, 3 months): <0.05
- Impurity 7 ([3]; 40° C./75% RH, 3 months): <0.05
- anamorelin (HPLC purity) ([3]; 40° C./75% RH, 3 months): 100.0%
- Impurity 1 ([3]; 40° C./75% RH, 6 months): <0.05
- Impurity 2 ([3]; 40° C./75% RH, 6 months): <0.05
- Impurity 3 ([3]; 40° C./75% RH, 6 months): <0.05
- Impurity 4 ([3]; 40° C./75% RH, 6 months): <0.05
- Impurity 5 ([3]; 40° C./75% RH, 6 months): <0.05
- Impurity 6 ([3]; 40° C./75% RH, 6 months): <0.05
- Impurity 7 ([3]; 40° C./75% RH, 6 months): <0.05
- anamorelin (HPLC purity) ([3]; 40° C./75% RH, 6 months): 100.0%
- Impurity 1 ([3]; Initial): <0.05
- Impurity 2 ([3]; Initial): <0.05
- Impurity 3 ([3]; Initial): <0.05
- Impurity 4 ([3]; Initial): <0.05
- Impurity 5 ([3]; Initial): <0.05
- Impurity 6 ([3]; Initial): <0.05
- Impurity 7 ([3]; Initial): <0.05
- anamorelin (HPLC purity) ([3]; Initial): 100.0%

Continued, values first:

- % Increase in Total Impurities From T0 ([4]; 25° C./60% RH, 1 Y): 10%
- % Increase in Total Impurities From T0 ([4]; 25° C./60% RH, 2 Y): 48%
- % Increase in Total Impurities From T0 ([4]; 25° C./60% RH, 3 Y): 29%
Structure (SMILES): CN(C)N(C)C(=O)[C@@]1(Cc2ccccc2)CCCN(C(=O)[C@@H](Cc2c[nH]c3ccccc23)NC(=O)C(C)(C)N)C1 [5.6%]

- % Increase in Total Impurities From T0 ([4]; 25° C./60% RH, 1 Y): 85%
- % Increase in Total Impurities From T0 ([4]; 25° C./60% RH, 2 Y): 114%
- % Increase in Total Impurities From T0 ([4]; 25° C./60% RH, 3 Y): 100%
- % Increase in Total Impurities From T0 ([4]; 40° C./75% RH, 1 M): 107%
- % Increase in Total Impurities From T0 ([4]; 40° C./75% RH, 3 M): 100%
- % Increase in Total Impurities From T0 ([4]; 40° C./75% RH, 6 M): 171%
Structure (SMILES): CN(C)N(C)C(=O)[C@@]1(Cc2ccccc2)CCCN(C(=O)[C@@H](Cc2c[nH]c3ccccc23)NC(=O)C(C)(C)N)C1 [6.2%]

- % Increase in Total Impurities From T0 ([4]; 25° C./60% RH, 1 Y): 0%
- % Increase in Total Impurities From T0 ([4]; 25° C./60% RH, 2 Y): 20%
- % Increase in Total Impurities From T0 ([4]; 25° C./60% RH, 3 Y): 20%
- % Increase in Total Impurities From T0 ([4]; 40° C./75% RH, 1 M): 0%
- % Increase in Total Impurities From T0 ([4]; 40° C./75% RH, 3 M): 21%
- % Increase in Total Impurities From T0 ([4]; 40° C./75% RH, 6 M): 17%
Structure (SMILES): CN(C)N(C)C(=O)[C@@]1(Cc2ccccc2)CCCN(C(=O)[C@@H](Cc2c[nH]c3ccccc23)NC(=O)C(C)(C)N)C1 [5.9%]

- % Increase in Total Impurities From T0 ([4]; 25° C./60% RH, 1 Y): 200%
- % Increase in Total Impurities From T0 ([4]; 25° C./60% RH, 2 Y): 340%
- % Increase in Total Impurities From T0 ([4]; 25° C./60% RH, 3 Y): 360%
- % Increase in Total Impurities From T0 ([4]; 40° C./75% RH, 1 M): 140%
- % Increase in Total Impurities From T0 ([4]; 40° C./75% RH, 3 M): 400%
- % Increase in Total Impurities From T0 ([4]; 40° C./75% RH, 6 M): 500%
Structure (SMILES): CN(C)N(C)C(=O)[C@@]1(Cc2ccccc2)CCCN(C(=O)[C@@H](Cc2c[nH]c3ccccc23)NC(=O)C(C)(C)N)C1 [6.3%]
